Columns and labels:
Test in all cases: Test E greenhouse herbicide test, pre- and postemergence
Format in all cases: in vivo
[1] = system: Italian ryegrass (Lolium multiflorum)
In short: (§1)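 Compounds in a non-phytotoxic solvent mixture with surfactant were applied preemergence to seeds in silt loam soil and postemergence to 2-18 cm plants (1- to 4-leaf stage) in peat-based medium. After 14 to 21 d in a greenhouse, injury was rated visually against untreated controls on a 0 (no effect) to 100 (complete control) scale.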

[2] = system: arrowleaf sida (Sida rhombifolia)
In short: as §1

[3] = system: barnyardgrass (Echinochloa crus-galli)
In short: as §1

corn (Zea mays) = system: corn (Zea mays)
In short: as §1

[4] = system: crabgrass, Brazilian (Brazilian crabgrass, Digitaria horizontalis)
In short: as §1

[5] = system: crabgrass, large (large crabgrass, Digitaria sanguinalis); conditions: Preemergence
In short: as §1

[6] = system: foxtail, giant (giant foxtail, Setaria faberii); conditions: Preemergence
In short: as §1

[7] = system: foxtail, green (green foxtail, Setaria viridis); conditions: Preemergence
In short: as §1

[8] = system: goosegrass (Eleusine indica); conditions: Preemergence
In short: as §1

[9] = system: horseweed (Conyza canadensis); conditions: Postemergence
In short: as §1

kochia (Kochia scoparia) = system: kochia (Kochia scoparia)
In short: as §1

[10] = system: lambsquarters (Chenopodium album); conditions: Preemergence
In short: as §1

[11] = system: nightshade (eastern black nightshade, Solanum ptycanthum); conditions: Preemergence
In short: as §1

[12] = system: panicum, fall (fall panicum, Panicum dichotomiflorum)
In short: as §1

[13] = system: sandbur (southem sandbur, Cenchrus echinatus)
In short: as §1

[14] = system: surinam grass (Brachiaria decumbens); conditions: Preemergence
In short: as §1

[15] = system: velvetleaf (Abutilon theophrasti); conditions: Preemergence
In short: as §1

[16] = 62 g ai/ha, Postemergence, scale 0 to 100 (0 no effect, 100 complete control)
[17] = 62 g ai/ha, Preemergence, scale 0 to 100 (0 no effect, 100 complete control)
[18] = 125 g ai/ha, Postemergence, scale 0 to 100 (0 no effect, 100 complete control)
[19] = 125 g ai/ha, Preemergence, scale 0 to 100 (0 no effect, 100 complete control)
[20] = 250 g ai/ha, Postemergence, scale 0 to 100 (0 no effect, 100 complete control)
[21] = Postemergence, 31 g ai/ha, visual, scale 0 no effect to 100 complete control
[22] = Preemergence, 31 g ai/ha, scale 0 to 100, 0 no effect, 100 complete control
[23] = Preemergence, 250 g ai/ha, visual, scale 0 no effect to 100 complete control
[24] = 62 g ai/ha, scale 0 to 100 (0 no effect, 100 complete control)
[25] = 125 g ai/ha, scale 0 to 100 (0 no effect, 100 complete control)
[26] = 31 g ai/ha, scale 0 to 100, 0 no effect, 100 complete control
[27] = 250 g ai/ha, visual, scale 0 no effect to 100 complete control

## Cc1cc(C)c2sc(C)c(-c3c(OC(=O)OCCCl)c(C)nn(C)c3=O)c2c1 [Compound 85]
[1]; [16]
  Plant response rating, Ryegrass, Italian: 60
[1]; [17]
  Plant response rating, Ryegrass, Italian: 80
[1]; [18]
  Plant response rating, Ryegrass, Italian: 75
[1]; [19]
  Plant response rating, Ryegrass, Italian: 95
[1]; [20]
  Plant response rating, Ryegrass, Italian: 80
[1]; [21]
  Plant response rating, Ryegrass, Italian: 50
[1]; [22]
  Plant response rating, Ryegrass, Italian: 80
[1]; [23]
  Plant response rating, Ryegrass, Italian: 100
[2]; [16]
  Plant response rating, Arrowleaf Sida: 50
[2]; [17]
  Plant response rating, Arrowleaf Sida: 0
[2]; [18]
  Plant response rating, Arrowleaf Sida: 50
[2]; [19]
  Plant response rating, Arrowleaf Sida: 50
[2]; [20]
  Plant response rating, Arrowleaf Sida: 50
[2]; [21]
  Plant response rating, Arrowleaf Sida: 40
[2]; [22]
  Plant response rating, Arrowleaf Sida: 0
[2]; [23]
  Plant response rating, Arrowleaf Sida: 70
[3]; [16]
  Plant response rating, Barnyardgrass: 30
[3]; [17]
  Plant response rating, Barnyardgrass: 0
[3]; [18]
  Plant response rating, Barnyardgrass: 20
[3]; [19]
  Plant response rating, Barnyardgrass: 30
[3]; [20]
  Plant response rating, Barnyardgrass: 30
[3]; [21]
  Plant response rating, Barnyardgrass: 20
[3]; [22]
  Plant response rating, Barnyardgrass: 0
[3]; [23]
  Plant response rating, Barnyardgrass: 35
Corn (Zea mays); [16]
  Plant response rating, Corn: 0
Corn (Zea mays); [17]
  Plant response rating, Corn: 0
Corn (Zea mays); [18]
  Plant response rating, Corn: 0
Corn (Zea mays); [19]
  Plant response rating, Corn: 0
Corn (Zea mays); [20]
  Plant response rating, Corn: 5
Corn (Zea mays); [21]
  Plant response rating, Corn: 0
Corn (Zea mays); [22]
  Plant response rating, Corn: 0
Corn (Zea mays); [23]
  Plant response rating, Corn: 0
[4]; [16]
  Plant response rating, Crabgrass, Brazil: 30
[4]; [17]
  Plant response rating, Crabgrass, Brazil: 50
[4]; [18]
  Plant response rating, Crabgrass, Brazil: 50
[4]; [19]
  Plant response rating, Crabgrass, Brazil: 80
[4]; [20]
  Plant response rating, Crabgrass, Brazil: 50
[4]; [21]
  Plant response rating, Crabgrass, Brazil: 15
[4]; [22]
  Plant response rating, Crabgrass, Brazil: 10
[4]; [23]
  Plant response rating, Crabgrass, Brazil: 90
[5]; [24]
  Plant response rating, Crabgrass, Large: 0
[5]; [25]
  Plant response rating, Crabgrass, Large: 0
[5]; [26]
  Plant response rating, Crabgrass, Large: 0
[5]; [27]
  Plant response rating, Crabgrass, Large: 25
[6]; [24]
  Plant response rating, Foxtail, Giant: 65
[6]; [25]
  Plant response rating, Foxtail, Giant: 95
[6]; [26]
  Plant response rating, Foxtail, Giant: 15
[6]; [27]
  Plant response rating, Foxtail, Giant: 100
[7]; [24]
  Plant response rating, Foxtail, Green: 25
[7]; [25]
  Plant response rating, Foxtail, Green: 15
[7]; [26]
  Plant response rating, Foxtail, Green: 0
[7]; [27]
  Plant response rating, Foxtail, Green: 100
[8]; [24]
  Plant response rating, Goosegrass: 5
[8]; [25]
  Plant response rating, Goosegrass: 5
[8]; [26]
  Plant response rating, Goosegrass: 5
[8]; [27]
  Plant response rating, Goosegrass: 20
[9]; [24]
  Plant response rating, Horseweed: 85
[9]; [25]
  Plant response rating, Horseweed: 85
[9]; 250 g ai/ha, scale 0 to 100 (0 no effect, 100 complete control)
  Plant response rating, Horseweed: 90
[9]; 31 g ai/ha, visual, scale 0 no effect to 100 complete control
  Plant response rating, Horseweed: 60
Kochia (Kochia scoparia); [16]
  Plant response rating, Kochia: 70
Kochia (Kochia scoparia); [17]
  Plant response rating, Kochia: 0
Kochia (Kochia scoparia); [18]
  Plant response rating, Kochia: 80
Kochia (Kochia scoparia); [19]
  Plant response rating, Kochia: 0
Kochia (Kochia scoparia); [20]
  Plant response rating, Kochia: 80
Kochia (Kochia scoparia); [21]
  Plant response rating, Kochia: 60
Kochia (Kochia scoparia); [22]
  Plant response rating, Kochia: 0
Kochia (Kochia scoparia); [23]
  Plant response rating, Kochia: 98
[10]; [24]
  Plant response rating, Lambsquarters: 100
[10]; [25]
  Plant response rating, Lambsquarters: 100
[10]; [26]
  Plant response rating, Lambsquarters: 70
[10]; [27]
  Plant response rating, Lambsquarters: 100
[11]; [24]
  Plant response rating, Nightshade: 95
[11]; [25]
  Plant response rating, Nightshade: 100
[11]; [26]
  Plant response rating, Nightshade: 95
[11]; [27]
  Plant response rating, Nightshade: 100
[12]; [16]
  Plant response rating, Panicum, Fall: 75
[12]; [17]
  Plant response rating, Panicum, Fall: 85
[12]; [18]
  Plant response rating, Panicum, Fall: 80
[12]; [19]
  Plant response rating, Panicum, Fall: 98
[12]; [20]
  Plant response rating, Panicum, Fall: 95
[12]; [21]
  Plant response rating, Panicum, Fall: 75
[12]; [22]
  Plant response rating, Panicum, Fall: 95
[12]; [23]
  Plant response rating, Panicum, Fall: 100
[13]; [17]
  Plant response rating, Sandbur: 50
[13]; [18]
  Plant response rating, Sandbur: 70
[13]; [19]
  Plant response rating, Sandbur: 80
[13]; [20]
  Plant response rating, Sandbur: 70
[13]; [21]
  Plant response rating, Sandbur: 40
[13]; [22]
  Plant response rating, Sandbur: 0
[13]; [23]
  Plant response rating, Sandbur: 90
[14]; [24]
  Plant response rating, Surinam Grass: 70
[14]; [25]
  Plant response rating, Surinam Grass: 70
[14]; [26]
  Plant response rating, Surinam Grass: 60
[14]; [27]
  Plant response rating, Surinam Grass: 90
[15]; [24]
  Plant response rating, Velvetleaf: 30
[15]; [25]
  Plant response rating, Velvetleaf: 70
[15]; [26]
  Plant response rating, Velvetleaf: 0
[15]; [27]
  Plant response rating, Velvetleaf: 95

Source: patent US10597388B2, “Pyridazinone herbicides” (FMC CORPORATION, priority 2014, dated 2020)
